Assay [1] concerns the target T1, HIV-1 protease (Human immunodeficiency virus type 1 group M subtype B, UniProt P04585).
T1 construct: Purified HIV-1 protease was obtained as described below; made in house; host or cells: E. coli K12 L507/pHP10D (NRRL B-18560)
Briefly: biochemical. The note with it: for IC50: read-out: Fluorescence Assay IC50 (converted). Summed up: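 Purified recombinant HIV-1 protease from E. coli preincubated 1 h at room temperature with compound in 20% aqueous DMSO, then biotin-peptide-FITC substrate added in MES-ALB buffer for 16 h at room temperature. Cleavage measured by avidin-bead capture, fluorescence ex 485/em 535 nm.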

Assay [2] deals with T1, HIV-1 protease. Briefly: Western Blot Analysis of HIV Protease Inhibition Assay (HIV-1 protease produced in E. coli, processing of gag polyprotein Pr48^gag). The format is biochemical. The note with it: yield of p17 from gag polyprotein; 30 min preincubation at room temperature, one hour at 37° C. The procedure: The compounds of the present invention were also tested for their ability to block HIV protease processing of Pr48^gag (a recombinant polyprotein containing p 17, p24 and p7).
A. Culture of E. coli K12 L507/DHP10D
Lyophils of E. coli K12 L507/pHP10D are obtained from the Northern Regional Research Laboratory, Peoria, Ill. 61604, under the accession number NRRL B-18560 (deposited Nov. 14, 1989). The lyophils are decanted into tubes containing 10 ml LB medium (10 g Bacto-tryptone, 5 g Bacto-yeast extract, and 10 g NaCl per liter; pH is adjusted to 7.5) and incubated at 32° C., overnight.
A small portion of the overnight culture was placed on LB-agar (LB medium with 15 g/l Bacto-agar) plates containing 12.5 μg/ml tetracycline in a manner so as to obtain a single colony isolate of E. coli K12 L507/pHP10D.The single colony obtained was inoculated into 10 ml of LB medium containing 12.5 μg/ml tetracycline and incubated overnight at 32° C. with vigorous shaking. The 10 ml overnight culture was inoculated into LB medium containing 12.5 μg/ml tetracycline and incubated at 32° C. with vigorous shaking until the culture reached mid-log phase.
B. Culture of E. coli K12 L507/pHGAG
Lyophils of E. coli K12 L507/pHGAG are obtained from the NRRL under the accession number NRRL B-18561 (deposited Nov. 14, 1989). A purified colony of E. coli K 12 L507/pHGAG was isolated, and used as an inoculum for a culture which was grown to mid-log phase in substantial accordance with the teaching of Step A above for E. Coli K12 L507/pHP10D.
C. Preparation of Protease and gag fractions
A culture of E. coli K12 L507/pHP10D was grown to mid-log phase at 32° C. in LB media containing 12.5 μg/ml tetracycline. The cultivation temperature was quickly elevated to 40° C. to induce gene expression, and the cells were allowed to grow for 2.5 hours at this temperature before the culture was quickly chilled on ice. The cells were centrifuged and the cell pellet was resuspended in 20 ml 50 mmol MES buffer (pH 6.0) containing 1 mmol EDTA, 1 mmol DTT, 1 mmol PMSF, and 10% glycerol (Buffer A). Cells were lysed by sonication using a Fischer Model 300 Dismembrator and a microtip probe. […] Enzymatic activity was measured by HPLC using the synthetic peptide SQNYPIV as described in Margolin et al., Biochem. Biophys. Res. Commun., 167, 554-560 (1990); the production of the pl peptide (SQNY) was measured.
Active fractions were pooled, made 1.2M in ammonium sulfate, and applied to a hexyl agarose column (2.0×18 cm) equilibrated in Buffer A containing 1.2M ammonium sulfate. The sample, in 125 ml (1.85 mg/ml), was loaded at a flow rate of 1 ml/min at 4° C. […] The column was then washed isocratically in Buffer A for 120 min. Active fractions were pooled, concentrated to 10 ml using an Amicon stirred cell with a YM-10 membrane, and applied at 1 ml/min to a MonoS cation exchange column (1.0×10 cm) equilibrated in Buffer A. After washing isocratically for 30 min, protease was eluted using a linear gradient of 0-0.45M NaCl in Buffer A over 40 min followed by an isocratic wash with Buffer A containing 0.45M NaCl over 30 min. Chromatography was performed at 25° C.
Pooled active fractions were concentrated to 200 ul using an Amicon stirred cell and a YM-10 membrane, and the protease was then applied to a Superose 6 size exclusion column equilibrated in Buffer A containing 0.1M NaCl. The column was washed isocratically in this buffer at a flow rate of 0.5 ml/min.
QAE-Sepharose, and hexyl agarose were purchased from Sigma Chemical Company. Superose 6 and MonoS were products of Pharmacia. Buffers and reagents were obtained from Sigma.
In an analogous manner, a culture of E. coli K12 507/pHGAG was grown to mid-log phase at 32° C. then shifted to 40° C. for about 4 to 5 hours. The culture was chilled on ice and centrifuged, then the pellet was resuspended in 8 ml lysis buffer containing 5 mg/ml lysozyme.
(Immunoblotting shows a protein as a band on a membrane.)

[3] abbreviates: purified HIV-1 protease, MES-ALB buffer pH 5.5, 1 h preincubation, 16 h with substrate, room temperature, IC50 values for Examples 2-70 are standardized relative to Ex 1.

The text below walks through data of patent US5719287A, “Intermediates for inhibitors of HIV protease and method of preparation thereof” (Eli Lilly and Company, priority 1995, dated 1998).

Usually IC50 stands for the point on the concentration scale where inhibition reaches its midpoint. As to `CC(C)(C)NC(=O)c1ccccc1C[C@@H](O)[C@H](Cc1ccccc1)NC(=O)[C@H](CC(N)=O)NC(=O)c1nccc2ccccc12` [Example 13], the results for the IC50 at HIV-1 protease [1] (setting [3]) and against HIV-1 protease [2] were 13.1 nM and 9 nM, respectively.
As to `CC(C)(C)NC(=O)c1ccccc1C[C@@H](O)[C@H](Cc1ccccc1)NC(=O)[C@H](CC(=O)NCc1nc2ccccc2[nH]1)NC(=O)c1ccc2ccccc2n1` [Example 49, [1S-(1R*, 4R*, 5S*)]-N-(1-(2-(N-2-benzimidazolylmethyl)amino)-2-oxoethyl)-2-oxo-3-aza-4-phenylmethyl-5-hydroxy-6-(2-(1-t-butylamino-1-oxomethyl)phenyl)hexyl)-2-quinolinyl carboxamide], at HIV-1 protease [1], the concentration for half-maximal inhibition (IC50) is 0.676 nM.
Consider `Cc1cc2ccccc2nc1C(=O)N[C@@H](CC(N)=O)C(=O)N[C@@H](Cc1ccccc1)[C@H](O)Cc1ccccc1C(=O)NC(C)(C)C` [Example 27, [1S-(1R*, 4R*. 5S*) ]-N-(1-(2-amino-2-oxoethyl)-2-oxo-3-aza-4-phenylmethyl-5-hydroxy-6-(2-(1-t-butylamino-1-oxomethyl)phenyl)hexyl)-3-methylquinolin-2-yl carboxamide], for which the concentration for half-maximal inhibition (IC50) at HIV-1 protease [1] was 8.18 nM.
Still for that read-out and setting: in the case of `CC(C)(C)NC(=O)c1ccccc1C[C@@H](O)[C@H](Cc1ccccc1)NC(=O)[C@H](CC(N)=O)NC(=O)c1cc2ccccc2s1` [Example 22, [1S-(1R*, 4R*, 5S*)]-N-(1-(2-amino-2-oxoethyl)-2-oxo-3-aza-4-phenylmethyl-5-hydroxy-6-(2-(1-t-butylamino-1-oxomethyl)phenyl)hexyl)-2-benzo[b]thienyl carboxamide] it was 10.7 nM; in that of `Cc1ccc(C(=O)NC(C)(C)C)c(C[C@@H](O)[C@H](Cc2ccccc2)NC(=O)[C@H](CC(N)=O)NC(=O)c2ccc3ccccc3n2)c1` [Example 65, [1S-(1R*, 4R*, 5S*)]-N-(1-(2-amino-2-oxoethyl)-2-oxo-3-aza-4-phenylmethyl-5-hydroxy-6-(2-(1-t-butylamino-1-oxomethyl)-5-methylphenyl)hexyl)-2-quinolinyl carboxamide], 1.92 nM; in that of `CC(C)(C)NC(=O)c1sccc1C[C@@H](O)[C@H](Cc1ccccc1)NC(=O)[C@H](CC(N)=O)NC(=O)c1ccc2ccccc2n1` [Example 41, [1S-(1R*, 4R*. 5S*) ]-N-(1-(2-amino-2-oxoethyl)-2-oxo-3-aza-4-phenylmethyl-5-hydroxy-6-(2-(1-t-butylamino-1-oxomethyl)thien-3-yl)hexyl)-2-quinolinyl carboxamide], 13 nM.
Regarding `CC(C)(C)NC(=O)c1ccccc1C[C@@H](O)[C@H](Cc1ccccc1)NC(=O)[C@H](CC(N)=O)NC(=O)c1ccc2cc(F)cc(F)c2n1` [Example 59, [1S-(1R*, 4R*, 5S*)]-N-(1-(2-amino-2-oxoethyl)-2-oxo-3-aza-4-phenylmethyl-5-hydroxy-6-(2-(1-t-butylamino-1-oxomethyl)phenyl)hexyl)-6,8-difluoroquinolin-2-yl carboxamide], the half-maximal inhibitory concentration (IC50) on HIV-1 protease [1] (setting [3]) is 11.2 nM.
`CC(C)(C)NC(=O)c1ccccc1C[C@@H](O)[C@H](CC1CCCCC1)NC(=O)[C@H](CC(N)=O)NC(=O)c1ccc2ccccc2n1` [Example 51, [1S-(1R*, 4R*. 5S*)]-N-(1-(2-amino-2-oxoethyl)-2-oxo-3-aza-4-cyclohexylmethyl-5-hydroxy-6-(2-(1-t-butylamino-1-oxomethyl)phenyl)hexyl)-2-quinolinyl carboxamide]: at HIV-1 protease [1], the concentration for half-maximal inhibition (IC50) was 14.9 nM.
For `CC(C)(C)NC(=O)c1ccccc1C[C@@H](O)[C@H](Cc1ccccc1)NC(=O)[C@H](CCC(=O)O)NC(=O)c1ccc2ccccc2n1` [Example 44, [1S-(1R*, 4R*, 5S*)]-N-(1-(3-hydroxy-3-oxopropyl)-2-oxo-3-aza-4-phenylmethyl-5-hydroxy-6-(2-(1-t-butylamino-1-oxomethyl)phenyl)hexyl)-2-quinolinyl carboxamide], the concentration for half-maximal inhibition (IC50) on HIV-1 protease [1] was 2.08 nM.
The same measure, in the same setting: in the case of `CC(C)(C)NC(=O)c1ccccc1C[C@@H](O)[C@H](Cc1ccccc1)NC(=O)[C@H](CC(N)=O)NC(=O)c1ccc2ccccc2c1` [Example 19, [1S-(1R*, 4R*, 5S*)]-N-(1-(2-amino-2-oxoethyl)-2-oxo-3-aza-4-phenylmethyl-5-hydroxy-6-(2-(1-t-butylamino-1-oxomethyl)phenyl)hexyl)-2-naphthyl carboxamide] it was 3.45 nM.
On to `CC(C)(C)NC(=O)c1ccccc1CC(O)C(Cc1ccccc1)NC(=O)C(CC(N)=O)NC(=O)c1cc(C(C)(C)C)c2ccccc2n1` (stereo not drawn) [Example 66, [1S-(1R*, 4R*, 5S*)]-N-(1-(3-amino-2-oxoethyl)-2-oxo-3-aza-4-phenylmethyl-5-hydroxy-6-(2-(1-t-butylamino-1-oxomethyl)phenyl)hexyl)-4-(2,2-dimethylethyl)quinolin-2-yl carboxamide], for which the “Fluorescence Assay IC50” value at HIV-1 protease [1] (setting [3]) worked out at 1.5 ng/mL.
Consider `CC(C)(C)NC(=O)c1ccccc1C[C@@H](O)[C@H](Cc1ccccc1)NC(=O)[C@H](CC(=O)NCc1ncc[nH]1)NC(=O)c1ccc2ccccc2n1` [Example 46, [1S-(1R*, 4R*, 5S*)]-N-(1-(2-(N-2-imidazolylmethyl)amino)-2-oxoethyl)-2-oxo-3-aza-4-phenylmethyl-5-hydroxy-6-(2-(1-t-butylamino-1-oxomethyl)phenyl)hexyl)-2-quinolinyl carboxamide], for which the half-inhibitory concentration (IC50) on HIV-1 protease [1] is 1.88 nM.
Take `CC(C)[C@H](NC(=O)c1ccc2ccccc2c1)C(=O)N[C@@H](Cc1ccccc1)[C@H](O)Cc1ccccc1C(=O)NC(C)(C)C` [Example 35]: on HIV-1 protease [1] (setting [3]), the IC50 was 131 nM.
Turning to `CC(C)(C)NC(=O)c1ccccc1C[C@@H](O)[C@H](Cc1ccccc1)NC(=O)[C@H](CC(N)=O)NC(=O)c1ccc2cccc(Cl)c2n1` [Example 62, [1S-(1R*, 4R*, 5S*)]-N-(1-(2-amino-2-oxoethyl)-2-oxo-3-aza-4-phenylmethyl-5-hydroxy-6-(2-(1-t-butylamino-1-oxomethyl)phenyl)hexyl)-8-chloroquinolin-2-yl carboxamide], the half-maximal inhibitory concentration (IC50) on HIV-1 protease [1] is 5.9 nM.
The same measure, in the same setting: for `CC(C)(C)NC(=O)c1ccccc1C[C@@H](O)[C@H](Cc1ccccc1)NC(=O)[C@H](CC(N)=O)NC(=O)C1Cc2ccccc2CN1` (single isomer, unassigned) [Example 36, [1S-(1R*, 4R*, 5S*)]-N-(1-(2-amino-2-oxoethyl)-2-oxo-3-aza-4-phenylmethyl-5-hydroxy-6-(2-(1-t-butylamino-1-oxomethyl)phenyl)hexyl)-3-(1,2,3,4-tetrahydroisoquinolinyl) carboxamide] the value was 1060 nM.
